Here are results for five compounds from paper PMC6009890, “Rosmarinic acid prevents fibrillization and diminishes vibrational modes associated to β sheet in tau protein linked to Alzheimer’s disease” (Journal of Enzyme Inhibition and Medicinal Chemistry, 2017).

The target of assay [1] is T1, tau protein (4R) (Homo sapiens, UniProt P10636).
T1 construct: gene MAPT; fragment 4R (htau244–372), His-tagged
Briefly: ThT fluorescence of heparin-induced aggregation of purified tau 4R, single concentration […]. Type of assay: biochemical.

In assay [2] the target is T1, tau protein (4R). Put plainly: ThT fluorescence of heparin-induced aggregation of purified tau 4R; supported by AFM and Raman. The class given is biochemical.

Each structure is given as a SMILES string. Like-named read-outs stand apart in the source and are kept apart here.

What is called inhibition is the drop in the measured response relative to a control, in per cent. By IC50 is commonly meant the midpoint of a concentration-inhibition curve. Low values mean greater potency in that assay, high ones weaker potency in that assay.

T1 sequence (P10636 561-689): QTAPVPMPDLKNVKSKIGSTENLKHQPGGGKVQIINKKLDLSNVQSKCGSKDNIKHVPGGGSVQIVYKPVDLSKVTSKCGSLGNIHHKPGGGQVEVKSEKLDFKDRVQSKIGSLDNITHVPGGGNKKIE

For `CC(C)c1cc2c(c(O)c1O)[C@@]13CCCC(C)(C)[C@@H]1[C@H](O)[C@@H]2OC3=O` [compound 4, epiisorosmanol], the inhibition at 50 µM in assay [1] (read-out: Inhibition (%)) is 70%.

For the compound `CC(C)c1cc2c(c(O)c1O)[C@@]13CCCC(C)(C)[C@@H]1C[C@@H]2OC3=O` [compound 1, carnosol], in assay [1] (read-out: Inhibition (%)), the inhibition at 50 µM came out at 68%.

Regarding `CC(C)c1cc2c(c(O)c1O)[C@@]13CCCC(C)(C)[C@@H]1[C@H](OC3=O)[C@H]2O` [compound 3, rosmanol], in assay [1] (read-out: Inhibition (%)), the inhibition at 50 µM turned out to be 50%.

Consider `CC(C)c1cc2c(c(O)c1O)[C@@]1(C(=O)O)CCCC(C)(C)[C@@H]1CC2` [compound 2, carnosic acid], for which the inhibition at 50 µM in assay [1] was 65%.

`O=C(/C=C/c1ccc(O)c(O)c1)O[C@H](Cc1ccc(O)c(O)c1)C(=O)O` [compound 5, rosmarinic acid] displayed an IC50 in assay [2] of 7.7 µM.
